US20080188483A1, “Compounds and Compositions as Protein Kinase Inhibitors” (IRM LLC, priority 2006, published 2008)
pIC50: −log10 of the molar value.

Tests used:
[1] = molecular target: b-Raf (Homo sapiens, UniProt P15056); test: b-Raf enzymatic assay; assay type: biochemical
Protocol: Compounds of the invention are tested for their ability to inhibit the activity of b-Raf. The assay is carried out in 384-well MaxiSorp plates (NUNC) with black walls and clear bottom. The substrate, IκBα: is diluted in DPBS (1:750) and 15 μl is added to each well. The plates are incubated at 4° C. overnight and washed 3 times with TBST (25 mM Tris, pH 8.0, 150 mM NaCl and 0.05% Tween-20) using the EMBLA plate washer. Plates are blocked by Superblock (15 μl/well) for 3 hours at room temperature, washed 3 times with TBST and pat-dried. Assay buffer containing 20 μM ATP (10 μl) is added to each well followed by 100 nl or 500 nl of compound. B-Raf is diluted in the assay buffer (1 μl into 25 μl) and 10 μl of diluted b-Raf is added to each well (0.4 μg/well). The plates are incubated at room temperature for 2.5 hours. The kinase reaction is stopped by washing the plates 6 times with TBST. Phosph-IκBα (Ser32/36) antibody is diluted in Superblock (1:10,000) and […] is added to each well. The plates are incubated at 4° C. overnight and washed 6 times with TBST. AP-conjugated goat-anti-mouse IgG is diluted in Superblock (1:1,500) and 15 μl is added to each well. Plates are incubated at room temperature for 1 hour and washed 6 times with TBST. […] Plates are read on Acquest or Analyst GT using a Fluorescence Intensity Program (Excitation 455 nm, Emission 580 nm).

[2] = molecular target: T1, wild type Bcr-abl (Ba/F3 cells) (Homo sapiens, UniProt P00519); test: Proliferation of Ba/F3 cells expressing wild type Bcr-abl; assay type: cell-based
T1 construct: expressed in transfected cells; host or cells: Ba/F3 (murine pro-B cells); the other entry of the earlier key: BCR (P11274, Breakpoint cluster region protein)
Protocol: 2D-p210 cells are plated into 96 well TC plates at a density of 15,000 cells per well. 50 μL of two fold serial dilutions of the test compound (Cmax is 40 μM) are added to each well (STI571 is included as a positive control). After incubating the cells for 48 hours at 37° C., 5% CO2, 15 μL of MTT (Promega) is added to each well and the cells are incubated for an additional 5 hours. The optical density at 570 nm is quantified spectrophotometrically and IC50 values, the concentration of compound required for 50% inhibition, determined from a dose response curve.
Compounds of the invention are tested for their antiproliferative effect on Ba/F3 cells expressing either wild type or the mutant forms of BCR-Abl (G250E, E255V, T315I, F317L, M351T) that confers resistance or diminished sensitivity to STI571. The antiproliferative effect of these compounds on the mutant-BCR-Abl expressing cells and on the non transformed cells were tested at 10, 3.3, 1.1 and 0.37 μM as described above (in media lacking IL3). The IC50 values of the compounds lacking toxicity on the untransformed cells were determined from the dose response curves obtained as describe above.

T1 sequence (P00519 28-1130 limits assumed): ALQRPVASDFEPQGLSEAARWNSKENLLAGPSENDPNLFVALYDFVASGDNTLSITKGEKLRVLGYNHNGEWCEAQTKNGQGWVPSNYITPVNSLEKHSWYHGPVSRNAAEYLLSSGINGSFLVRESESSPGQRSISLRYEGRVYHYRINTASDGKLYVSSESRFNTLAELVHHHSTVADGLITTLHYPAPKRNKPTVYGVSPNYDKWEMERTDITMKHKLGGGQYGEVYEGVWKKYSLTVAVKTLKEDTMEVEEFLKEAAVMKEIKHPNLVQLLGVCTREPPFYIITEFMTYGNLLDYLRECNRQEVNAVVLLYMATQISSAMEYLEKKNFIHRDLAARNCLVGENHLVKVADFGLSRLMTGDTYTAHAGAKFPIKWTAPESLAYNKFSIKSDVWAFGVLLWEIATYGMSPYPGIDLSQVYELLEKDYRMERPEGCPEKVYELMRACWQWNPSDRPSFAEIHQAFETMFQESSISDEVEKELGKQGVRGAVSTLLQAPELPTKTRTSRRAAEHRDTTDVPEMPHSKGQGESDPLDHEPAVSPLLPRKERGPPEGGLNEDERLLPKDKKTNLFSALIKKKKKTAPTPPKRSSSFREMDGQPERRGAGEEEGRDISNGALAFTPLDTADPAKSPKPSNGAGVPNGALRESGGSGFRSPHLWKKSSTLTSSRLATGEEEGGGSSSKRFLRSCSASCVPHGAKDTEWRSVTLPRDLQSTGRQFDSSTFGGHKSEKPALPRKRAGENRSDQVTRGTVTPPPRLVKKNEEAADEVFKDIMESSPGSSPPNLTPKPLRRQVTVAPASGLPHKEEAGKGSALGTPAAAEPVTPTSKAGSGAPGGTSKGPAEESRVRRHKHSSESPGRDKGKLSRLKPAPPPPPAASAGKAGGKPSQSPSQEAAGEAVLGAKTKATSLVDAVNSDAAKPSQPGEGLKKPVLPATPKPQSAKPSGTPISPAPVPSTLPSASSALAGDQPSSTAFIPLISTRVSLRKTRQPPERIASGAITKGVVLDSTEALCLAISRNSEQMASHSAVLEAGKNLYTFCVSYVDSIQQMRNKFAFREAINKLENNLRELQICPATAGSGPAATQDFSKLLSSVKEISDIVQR
b-Raf, sequence (P15056 whole entry): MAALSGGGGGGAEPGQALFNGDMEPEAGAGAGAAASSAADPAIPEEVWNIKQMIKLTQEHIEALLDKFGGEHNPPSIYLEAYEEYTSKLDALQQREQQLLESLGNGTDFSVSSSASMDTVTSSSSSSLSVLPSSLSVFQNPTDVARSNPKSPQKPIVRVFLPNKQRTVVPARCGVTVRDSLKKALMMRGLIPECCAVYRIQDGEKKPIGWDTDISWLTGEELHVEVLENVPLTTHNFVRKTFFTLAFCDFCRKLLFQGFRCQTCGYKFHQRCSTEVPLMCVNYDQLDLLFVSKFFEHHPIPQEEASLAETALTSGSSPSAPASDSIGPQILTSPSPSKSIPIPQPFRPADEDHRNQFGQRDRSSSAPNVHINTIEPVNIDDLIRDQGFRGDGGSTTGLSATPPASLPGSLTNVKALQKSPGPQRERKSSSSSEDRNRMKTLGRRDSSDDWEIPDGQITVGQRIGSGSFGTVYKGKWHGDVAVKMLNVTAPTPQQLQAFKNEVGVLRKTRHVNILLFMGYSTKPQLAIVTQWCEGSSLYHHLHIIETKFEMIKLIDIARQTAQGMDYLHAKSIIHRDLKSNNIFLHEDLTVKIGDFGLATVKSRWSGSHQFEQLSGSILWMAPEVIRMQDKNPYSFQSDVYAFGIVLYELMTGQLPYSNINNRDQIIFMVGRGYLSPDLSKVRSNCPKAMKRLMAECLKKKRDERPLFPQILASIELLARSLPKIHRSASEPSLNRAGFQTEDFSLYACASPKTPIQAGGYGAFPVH

Cc1cn(-c2cc(C(=O)Nc3ccc(C)c(Nc4nccn4-c4ncnc5[nH]ccc45)c3)cc(C(F)(F)F)c2)cn1 [Example 2, 3-(4-methyl-imidazol-1-yl)-N-{4-methyl-3-[1-(7H-pyrrolo[2,3-d]pyrimidin-4-yl)-1H-imidazol-2-ylamino]-phenyl}-5-trifluoromethyl-benzamide]
pIC50 [1]: 8.70
pIC50 [2]: > 9.30
